Results: patent publication US9296736B2 (priority 2010, dated 2016)

Target: interaction between GST-hMDM2 (1-188) and biotinylated-p53 (1-83) (Homo sapiens (Human), UniProt Q00987)
Assay: biochemical

Sequence of interaction between GST-hMDM2 (1-188) and biotinylated-p53 (1-83) (Q00987 1-188): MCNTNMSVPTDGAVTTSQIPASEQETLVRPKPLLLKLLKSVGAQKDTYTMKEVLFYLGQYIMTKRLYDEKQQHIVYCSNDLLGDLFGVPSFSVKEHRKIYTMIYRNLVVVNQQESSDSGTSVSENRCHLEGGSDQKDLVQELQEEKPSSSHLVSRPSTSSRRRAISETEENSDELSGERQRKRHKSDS

For `CC[C@@H](CNS(=O)(=O)c1cccnc1)N1C(=O)[C@@](C)(CC(=O)O)C[C@H](c2cccc(Cl)c2)[C@H]1c1ccc(Cl)cc1` [Example 196, 2-((3R,5R,6S)-5-(3-chlorophenyl)-6-(4-chlorophenyl)-3-methyl-2-oxo-1-((S)-1-(pyridine-3-sulfonamido)butan-2-yl)piperidin-3-yl)acetic acid], which IC50 is on record?
The IC50 was < 1 nM.
